What was measured:
[1] = biological target: T1, LRBA and CTLA-4 reporting system (Homo sapiens, UniProt P16410+P50851); assay: LRBA/CTLA-4 protein-protein interaction reporting system, dual luciferase assay in HEK293 cells; format: cell-based; conditions: HEK293 cells co-transfected with LRBA and CTLA-4 reporting system, 24 h after dosing; read-out: In vitro activity (IC50: concentration of compounds that inhibit 50% of reporting system activity)
T1 construct: expressed in transfected cells; host or cells: HEK293
T1 sequence (P16410 36-223): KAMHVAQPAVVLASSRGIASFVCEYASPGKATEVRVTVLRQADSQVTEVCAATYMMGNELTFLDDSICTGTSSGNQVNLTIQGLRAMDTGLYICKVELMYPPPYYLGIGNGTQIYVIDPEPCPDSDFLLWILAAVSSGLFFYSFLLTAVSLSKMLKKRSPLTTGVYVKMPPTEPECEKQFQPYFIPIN
T1 sequence (P50851 whole entry): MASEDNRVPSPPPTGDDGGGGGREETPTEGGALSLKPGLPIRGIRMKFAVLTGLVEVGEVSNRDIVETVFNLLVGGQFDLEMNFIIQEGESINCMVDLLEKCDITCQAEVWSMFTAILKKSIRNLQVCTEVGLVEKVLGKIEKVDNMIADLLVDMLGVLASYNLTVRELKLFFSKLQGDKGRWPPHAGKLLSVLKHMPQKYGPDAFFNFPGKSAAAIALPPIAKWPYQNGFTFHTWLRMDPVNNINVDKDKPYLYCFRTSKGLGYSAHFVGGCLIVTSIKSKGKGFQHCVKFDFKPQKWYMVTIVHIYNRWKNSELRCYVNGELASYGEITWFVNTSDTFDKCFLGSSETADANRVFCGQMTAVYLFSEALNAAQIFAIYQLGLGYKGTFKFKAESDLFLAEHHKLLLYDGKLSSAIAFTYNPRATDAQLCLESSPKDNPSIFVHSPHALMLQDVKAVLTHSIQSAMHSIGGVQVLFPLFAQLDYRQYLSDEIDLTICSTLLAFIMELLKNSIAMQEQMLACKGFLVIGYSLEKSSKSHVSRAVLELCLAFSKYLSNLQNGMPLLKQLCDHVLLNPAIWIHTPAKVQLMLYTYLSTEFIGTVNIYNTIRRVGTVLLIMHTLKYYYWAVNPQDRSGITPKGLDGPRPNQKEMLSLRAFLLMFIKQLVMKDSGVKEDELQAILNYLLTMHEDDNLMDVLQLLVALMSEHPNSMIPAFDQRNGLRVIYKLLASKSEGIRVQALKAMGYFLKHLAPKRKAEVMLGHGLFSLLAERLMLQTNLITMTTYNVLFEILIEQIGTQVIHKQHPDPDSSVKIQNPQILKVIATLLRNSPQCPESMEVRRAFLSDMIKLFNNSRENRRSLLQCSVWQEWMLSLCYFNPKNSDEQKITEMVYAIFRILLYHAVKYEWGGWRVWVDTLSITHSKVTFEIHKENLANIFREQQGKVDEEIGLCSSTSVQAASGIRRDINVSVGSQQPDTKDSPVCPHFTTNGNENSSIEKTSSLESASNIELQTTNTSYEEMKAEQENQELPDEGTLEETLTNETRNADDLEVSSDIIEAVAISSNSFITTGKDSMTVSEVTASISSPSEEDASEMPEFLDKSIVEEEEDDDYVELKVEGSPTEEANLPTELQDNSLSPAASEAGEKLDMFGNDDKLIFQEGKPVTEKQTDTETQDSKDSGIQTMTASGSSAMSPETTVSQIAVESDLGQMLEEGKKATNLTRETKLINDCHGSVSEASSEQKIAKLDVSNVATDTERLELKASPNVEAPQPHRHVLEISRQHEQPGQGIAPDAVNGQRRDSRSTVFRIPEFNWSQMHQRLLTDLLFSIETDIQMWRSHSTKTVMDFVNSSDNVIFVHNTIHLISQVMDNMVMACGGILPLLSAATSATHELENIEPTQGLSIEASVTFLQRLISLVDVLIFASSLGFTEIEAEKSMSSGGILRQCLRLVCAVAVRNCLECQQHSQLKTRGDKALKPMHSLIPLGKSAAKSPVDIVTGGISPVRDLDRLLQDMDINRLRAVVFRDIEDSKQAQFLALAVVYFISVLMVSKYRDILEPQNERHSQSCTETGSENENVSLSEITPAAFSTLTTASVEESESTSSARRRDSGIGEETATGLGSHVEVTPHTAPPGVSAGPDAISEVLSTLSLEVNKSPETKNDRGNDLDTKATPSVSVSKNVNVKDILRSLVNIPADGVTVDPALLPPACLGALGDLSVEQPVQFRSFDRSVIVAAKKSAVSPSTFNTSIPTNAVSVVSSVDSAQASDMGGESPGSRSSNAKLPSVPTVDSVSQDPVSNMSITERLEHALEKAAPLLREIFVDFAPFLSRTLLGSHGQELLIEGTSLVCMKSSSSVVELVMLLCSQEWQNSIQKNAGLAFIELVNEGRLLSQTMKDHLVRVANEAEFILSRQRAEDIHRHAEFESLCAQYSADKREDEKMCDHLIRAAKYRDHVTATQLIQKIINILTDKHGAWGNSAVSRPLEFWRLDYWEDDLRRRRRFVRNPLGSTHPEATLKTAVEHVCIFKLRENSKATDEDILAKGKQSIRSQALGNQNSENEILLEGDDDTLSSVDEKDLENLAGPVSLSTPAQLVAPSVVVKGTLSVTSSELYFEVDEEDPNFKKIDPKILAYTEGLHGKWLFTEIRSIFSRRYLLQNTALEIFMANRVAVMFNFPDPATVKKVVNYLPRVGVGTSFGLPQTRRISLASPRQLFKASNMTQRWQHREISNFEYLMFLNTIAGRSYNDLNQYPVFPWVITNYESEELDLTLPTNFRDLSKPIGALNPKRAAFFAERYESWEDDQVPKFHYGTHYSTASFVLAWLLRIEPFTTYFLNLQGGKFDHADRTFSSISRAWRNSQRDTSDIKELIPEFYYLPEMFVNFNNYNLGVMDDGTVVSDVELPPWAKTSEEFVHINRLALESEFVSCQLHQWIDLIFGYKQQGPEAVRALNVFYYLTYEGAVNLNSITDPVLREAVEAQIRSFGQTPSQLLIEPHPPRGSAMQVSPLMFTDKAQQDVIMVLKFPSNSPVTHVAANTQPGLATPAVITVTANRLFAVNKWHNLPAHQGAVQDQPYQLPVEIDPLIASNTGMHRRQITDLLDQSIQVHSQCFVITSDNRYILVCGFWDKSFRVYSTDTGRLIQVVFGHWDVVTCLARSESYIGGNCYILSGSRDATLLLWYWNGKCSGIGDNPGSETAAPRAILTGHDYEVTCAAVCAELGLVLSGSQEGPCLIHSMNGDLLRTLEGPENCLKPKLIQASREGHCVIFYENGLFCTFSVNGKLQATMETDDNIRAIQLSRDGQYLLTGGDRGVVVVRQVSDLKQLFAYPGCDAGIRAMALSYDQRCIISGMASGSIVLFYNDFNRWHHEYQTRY
Method: HEK293 cells were spread on 96-well plates, and LRBA and CTLA-4 reporting system were co-transfected into HEK293 cells after 24 h. After 24 h, different compounds with final concentrations of 0.01, 0.033, 0.10, 0.33, 1.00, 3.33, 10.00, 33.33, and 100.00 μM were added. 24 h after dosing, the cell culture medium was removed and the cells were washed with cold PBS. Then the activity of the compounds were detected by the dual luciferase assay kit, and IC50 values were calculated according to the results.
For the compounds with strong activity (IC50<200 nM), the degradation of CTLA-4 protein was further detected by Western Blot. • IC50: Concentration of compounds that inhibit 50% of reporting system activity The size of IC50 is divided into four levels: • ++++, IC50<200 nM; +++, IC50 is 200-1000 nM; ++, IC50 is 1000-2000 nM; +, IC50>2000 nM.

[2] = system: Mouse colon cancer MC-38 cells; assay: In vivo activity research of xenograft model (MC-38); parameters: species or system C57BL/6 mice; conditions: for TGI(%): 30 mg/kg, oral, once a day, MC-38 subcutaneous in C57BL/6 mice
Method: 1. Cell culture: Mouse colon cancer MC-38 cells were adherently cultured in vitro. The culture conditions were RPMI-1640 medium with 10% fetal bovine serum, 100 U/mL penicillin and 100 μg/mL streptomycin, 37° C. 5% CO2 incubator culture. Passaged with routine processing two to three times a week. When the cell saturation was 80%-90% and the number reached the requirement, the cell count was collected, and the cell concentration was adjusted for experimental inoculation. 2. Animals: C57BL/6 mice, female, 7 weeks old, 18-20 grams in weight, 8 mice per group. 3. Tumor inoculation: 0.02 mL (0.2×10^6) MC-38 cells were subcutaneously inoculated into the right back of each mouse. On the 7th day after inoculation, the tumor volumes of the animals were measured, and then the groups were randomized according to tumor volume and administration was started. 4. Experimental indicators: The experimental indicators were used to examine whether the tumor growth is inhibited, delayed or cured. Tumor diameters were measured with vernier calipers two to three times a week. The calculation formula of tumor volume is: V=0.5a×b^2, wherein a and b respectively represent the long and short diameters of tumors. The anti-tumor effect of the compounds was expressed by TGI (%). TGI (%), reflecting tumor growth inhibition rate. Calculation of TGI(%): TGI(%)=[(1-(average tumor volume at the end of administration of a treatment group−average tumor volume at the beginning of administration of the treatment group))/(average tumor volume at the end of treatment of the solvent control group−average tumor volume at the beginning of treatment of the solvent control group)]×100%. 5. Animal experiment grouping, administration program and experimental results: […]

[3] = system: Colorectal cancer (MSI-H/dMMR); conditions: clinical; cited from earlier work
[4] = system: Non-small cell lung cancer; conditions: clinical; cited from earlier work
Hepatocellular carcinoma = conditions: clinical; cited from earlier work

Row | Compound | IC50 [1] [nM] | TGI(%) [2] [%] | other results
1 | Cn1ncc2c(-c3cnc4ccccc4c3)nc(N3CCNCC3)nc21 [Compound 52, 3-(1-methyl-6-(piperazin-1-yl)-1H-pyrazolo[3,4-d]pyrimidin-4-yl)quinoline] | 1000 to 2000 |  | 
2 | Cc1c(-c2cnc3ccccc3c2)ncnc1N1CCNCC1 [Compound 53, 3-(5-methyl-6-(piperazin-1-yl)pyrimidin-4-yl)quinoline] | < 200 |  | 
3 | Nivolumab [O drug] |  |  | ORR [3]: single O drug group ORR = 36%; ORR [4]: single O drug group ORR = 14.5%; ORR (Hepatocellular carcinoma): single O drug group ORR = 15%

The next lines start with results.

Row | IC50 [1] [nM] | Compound | TGI(%) [2] [%] | other results
4 | < 200 | c1ccc2ncc(-c3ccnc(N4CCNCC4)n3)cc2c1 [Compound 18, 3-(2-(piperazin-1-yl)pyrimidin-4-yl)quinoline] | 90 | anti-tumor effect in tumor transplantation model in vivo ([2]; MC-38 model): excellent anti-tumor effects
5 | < 200 | c1ccc2ncc(-c3cc(N4CCNCC4)ncn3)cc2c1 [Compound 44, 3-(6-(piperazin-1-yl)pyrimidin-4-yl)quinoline] | 85 | 
